Target: T1, BRM (Homo sapiens, UniProt P51531)
T1 construct: In-Cell Western Screen of BRM Degradation in SW1573 Cells; endogenous in cells; host or cells: SW1573
Assay: In-cell Western screen of BRM degradation in SW1573 cells (Dmax and DC50)
Type: cell-based
Conditions: BRM degradation, SW1573 cells; for DC50: read-out: DC50; for Dmax: when tested at the top concentration of between 0.3 and 10 μM, read-out: Dmax (%) (% degraded)
How it was run: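 After adhering overnight, cells received compound for 18-20 hours. They were then washed in cold DPBS, fixed with 4% PFA for 20 min and permeabilized for 30 min. Blocking and fluorescent secondary staining followed before imaging.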

T1 sequence (P51531 whole entry): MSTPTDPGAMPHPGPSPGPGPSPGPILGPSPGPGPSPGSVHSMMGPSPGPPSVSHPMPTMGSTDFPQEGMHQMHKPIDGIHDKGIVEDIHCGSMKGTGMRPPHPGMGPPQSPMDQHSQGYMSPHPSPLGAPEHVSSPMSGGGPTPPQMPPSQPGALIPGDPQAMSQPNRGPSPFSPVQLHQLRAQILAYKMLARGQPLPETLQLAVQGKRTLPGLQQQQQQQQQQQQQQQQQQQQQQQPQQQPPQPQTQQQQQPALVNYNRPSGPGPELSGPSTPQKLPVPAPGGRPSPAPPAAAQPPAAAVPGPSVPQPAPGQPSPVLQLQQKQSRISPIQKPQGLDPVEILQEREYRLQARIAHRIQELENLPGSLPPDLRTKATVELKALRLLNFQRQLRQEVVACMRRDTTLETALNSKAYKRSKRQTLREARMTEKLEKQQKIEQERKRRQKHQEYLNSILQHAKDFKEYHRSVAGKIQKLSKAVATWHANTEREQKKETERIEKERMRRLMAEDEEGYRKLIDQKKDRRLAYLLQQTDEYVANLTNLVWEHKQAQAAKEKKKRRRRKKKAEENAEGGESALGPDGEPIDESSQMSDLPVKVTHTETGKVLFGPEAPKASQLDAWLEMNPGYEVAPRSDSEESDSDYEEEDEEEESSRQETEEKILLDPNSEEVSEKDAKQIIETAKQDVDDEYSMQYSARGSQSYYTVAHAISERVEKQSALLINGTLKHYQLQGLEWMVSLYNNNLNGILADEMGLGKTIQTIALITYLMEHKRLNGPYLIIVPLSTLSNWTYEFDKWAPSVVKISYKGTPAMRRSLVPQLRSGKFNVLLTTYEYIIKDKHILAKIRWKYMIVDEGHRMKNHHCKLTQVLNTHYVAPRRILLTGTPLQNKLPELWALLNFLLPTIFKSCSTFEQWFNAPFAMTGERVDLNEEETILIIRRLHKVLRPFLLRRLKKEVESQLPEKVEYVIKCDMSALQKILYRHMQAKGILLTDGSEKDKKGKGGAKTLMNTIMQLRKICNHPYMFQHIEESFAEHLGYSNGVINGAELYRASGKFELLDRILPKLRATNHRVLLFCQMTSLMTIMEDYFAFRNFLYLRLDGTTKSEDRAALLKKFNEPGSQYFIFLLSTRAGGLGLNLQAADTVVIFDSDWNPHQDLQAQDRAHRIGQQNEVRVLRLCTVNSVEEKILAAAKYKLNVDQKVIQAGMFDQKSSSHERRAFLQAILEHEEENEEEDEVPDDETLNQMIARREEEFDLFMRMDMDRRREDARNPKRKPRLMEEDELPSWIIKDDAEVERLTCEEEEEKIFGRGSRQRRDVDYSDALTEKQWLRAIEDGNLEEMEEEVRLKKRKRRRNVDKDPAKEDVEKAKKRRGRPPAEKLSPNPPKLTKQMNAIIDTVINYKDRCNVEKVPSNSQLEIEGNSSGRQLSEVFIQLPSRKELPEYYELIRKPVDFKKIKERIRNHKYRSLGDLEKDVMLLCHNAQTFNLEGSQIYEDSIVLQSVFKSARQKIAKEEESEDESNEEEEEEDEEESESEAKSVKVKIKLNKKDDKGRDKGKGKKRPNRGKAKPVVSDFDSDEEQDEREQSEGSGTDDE

Structure (SMILES) | DC50 [nM] | Dmax [%]
Cc1ncsc1-c1ccc(CNC(=O)[C@@H]2C[C@@H](O)CN2C(=O)[C@@H](NC(=O)COCCOCCOCCOc2cc(N3C4CCC3CN(c3cc(-c5ccccc5O)nnc3N)C4)ccn2)C(C)(C)C)cc1 [compound 6, (2S,4R)-1-((2S)-14-((4-(3-(3-amino-6-(2-hydroxyphenyl)pyridazin-4-yl)-3,8-diazabicyclo[2.1]octan-8-yl)pyridin-2-yl)oxy)-2-(tert-butyl)-4-oxo-6,9,12-trioxa-3-azatetradecanoyl)-4-hydroxy-N-(4-(4-methylthiazol-5-yl)benzyl)pyrrolidine-2-carboxamide] | 10 to 30 | > 75
Cc1ncsc1-c1ccc(CNC(=O)[C@@H]2C[C@@H](O)CN2C(=O)[C@@H](NC(=O)COCCOCCOCCOCCOc2cc(N3C4CCC3CN(c3cc(-c5ccccc5O)nnc3N)C4)ccn2)C(C)(C)C)cc1 [compound 7, (2S,4R)-1-((2S)-17-((4-(3-(3-amino-6-(2-hydroxyphenyl)pyridazin-4-yl)-3,8-diazabicyclo[3.2.1]octan-8-yl)pyridin-2-yl)oxy)-2-(tert-butyl)-4-oxo-6,9,12,15-tetraoxa-3-azaheptadecanoyl)-4-hydroxy-N-(4-(4-methylthiazol-5-yl)benzyl)pyrrolidine-2-carboxamide] | 2.5 to 10 | > 75
Cc1ncsc1-c1ccc(CNC(=O)[C@@H]2C[C@@H](O)CN2C(=O)[C@@H](NC(=O)COCCOCCOCCOCCOCCOCCOc2cc(N3C4CCC3CN(c3cc(-c5ccccc5O)nnc3N)C4)ccn2)C(C)(C)C)cc1 [compound 8, (2S,4R)-1-((2S)-23-((4-(3-(3-amino-6-(2-hydroxyphenyl)pyridazin-4-yl)-3,8-diazabicyclo[3.2.1]octan-8-yl)pyridin-2-yl)oxy)-2-(tert-butyl)-4-oxo-6,9,12,15,18,21-hexaoxa-3-azatricosanoyl)-4-hydroxy-N-(4-(4-methylthiazol-5-yl)benzyl)pyrrolidine-2-carboxamide] | 10 to 30 | > 75
Cc1ncsc1-c1ccc(CNC(=O)[C@@H]2C[C@@H](O)CN2C(=O)[C@@H](NC(=O)COCCOCCOCCOCCOCCOc2cc(N3[C@@H]4CC[C@H]3CN(c3cc(-c5ccccc5O)nnc3N)C4)ccn2)C(C)(C)C)cc1 [compound 9, (2S,4R)-1-((S)-20-((4-((1R,5S)-3-(3-amino-6-(2-hydroxyphenyl)pyridazin-4-yl)-3,8-diazabicyclo[3.2.1]octan-8-yl)pyridin-2-yl)oxy)-2-(tert-butyl)-4-oxo-6,9,12,15,18-pentaoxa-3-azaicosanoyl)-4-hydroxy-N-(4-(4-methylthiazol-5-yl)benzyl)pyrrolidine-2-carboxamide] | 2.5 to 10 | > 75
Cc1ncsc1-c1ccc(CNC(=O)[C@@H]2C[C@@H](O)CN2C(=O)[C@@H](NC(=O)COCCOCCOCCOCCOCCOCCOCCOc2cc(N3C4CCC3CN(c3cc(-c5ccccc5O)nnc3N)C4)ccn2)C(C)(C)C)cc1 [compound 10, (2S,4R)-1-((2S)-26-((4-(3-(3-amino-6-(2-hydroxyphenyl)pyridazin-4-yl)-3,8-diazabicyclo[3.2.1]octan-8-yl)pyridin-2-yl)oxy)-2-(tert-butyl)-4-oxo-6,9,12,15,18,21,24-heptaoxa-3-azahexacosanoyl)-4-hydroxy-N-(4-(4-methylthiazol-5-yl)benzyl)pyrrolidine-2-carboxamide] | 2.5 to 10 | > 75
Cc1ncsc1-c1ccc(CNC(=O)[C@@H]2C[C@@H](O)CN2C(=O)[C@@H](c2cc(OCCOCCOCCn3cc(-c4cc(-c5ccccc5O)nnc4N)cn3)no2)C(C)C)cc1 [compound 15, (2S,4R)-1-[(2R)-2-(3-[2-[2-(2-[4-[3-amino-6-(2-hydroxyphenyl)pyridazin-4-yl]-1H-pyrazol-1-yl]ethoxy)ethoxy]ethoxy]-1,2-oxazol-5-yl)-3-methylbutanoyl]-4-hydroxy-N-[[4-(4-methyl-1,3-thiazol-5-yl)phenyl]methyl]pyrrolidine-2-carboxamide] | 10 to 30 | > 75
Cc1ncsc1-c1ccc(CNC(=O)[C@@H]2C[C@@H](O)CN2C(=O)[C@H](c2cc(OCCOCCOCCOCCn3cc(-c4cc(-c5ccccc5O)nnc4N)cn3)no2)C(C)C)cc1 [compound 16, (2S,4R)-1-((S)-2-(3-(2-(2-(2-(2-(4-(3-amino-6-(2-hydroxyphenyl)pyridazin-4-yl)-1H-pyrazol-1-yl)ethoxy)ethoxy)ethoxy)ethoxy)isoxazol-5-yl)-3-methylbutanoyl)-4-hydroxy-N-(4-(4-methylthiazol-5-yl)benzyl)pyrrolidine-2-carboxamide] | > 30 | 50 to 75
Cc1ncsc1-c1ccc(CNC(=O)[C@@H]2C[C@@H](O)CN2C(=O)[C@H](c2cc(OCCOCCOCCOCCOCCn3cc(-c4cc(-c5ccccc5O)nnc4N)cn3)no2)C(C)C)cc1 [compound 18, (2S,4R)-1-[(2S)-2-[3-[(14-[4-[3-amino-6-(2-hydroxyphenyl)pyridazin-4-yl]-1H-pyrazol-1-yl]-3,6,9,12-tetraoxatetradecan-1-yl)oxy]-1,2-oxazol-5-yl]-3-methylbutanoyl]-4-hydroxy-N-[[4-(4-methyl-1,3-thiazol-5-yl)phenyl]methyl]pyrrolidine-2-carboxamide] | > 30 | 50 to 75

The remaining lines, values ahead:

DC50 [nM] | Dmax [%] | Structure (SMILES)
> 30 | > 75 | Cc1ncsc1-c1ccc(CNC(=O)[C@@H]2C[C@@H](O)CN2C(=O)[C@@H](NC(=O)COCCOCCOCCOCCOCCOCCOCCn2cc(-c3cc(-c4ccccc4O)nnc3N)cn2)C(C)(C)C)cc1 [compound 5, (2S,4R)-1-((S)-26-(4-(3-amino-6-(2-hydroxyphenyl)pyridazin-4-yl)-1H-pyrazol-1-yl)-2-(tert-butyl)-4-oxo-6,9,12,15,18,21,24-heptaoxa-3-azahexacosanoyl)-4-hydroxy-N-(4-(4-methylthiazol-5-yl)benzyl)pyrrolidine-2-carboxamide]
> 30 | > 75 | Cc1ncsc1-c1ccc(CNC(=O)[C@@H]2C[C@@H](O)CN2C(=O)[C@@H](NC(=O)COCCOCCn2cc(-c3cc(-c4ccccc4O)nnc3N)cn2)C(C)(C)C)cc1 [compound 11, (2S,4R)-1-((S)-2-(2-(2-(2-(4-(3-amino-6-(2-hydroxyphenyl)pyridazin-4-yl)-1H-pyrazol-1-yl)ethoxy)ethoxy)acetamido)-3,3-dimethylbutanoyl)-4-hydroxy-N-(4-(4-methylthiazol-5-yl)benzyl)pyrrolidine-2-carboxamide]
> 30 | 50 to 75 | Cc1ncsc1-c1ccc(CNC(=O)[C@@H]2C[C@@H](O)CN2C(=O)[C@H](C(C)C)N2Cc3ccccc3C2=O)c(OCCOCCOCCOCCn2cc(-c3cc(-c4ccccc4O)nnc3N)cn2)c1 [compound 12, (2S,4R)-N-(2-(2-(2-(2-(2-(4-(3-amino-6-(2-hydroxyphenyl)pyridazin-4-yl)-1H-pyrazol-1-yl)ethoxy)ethoxy)ethoxy)ethoxy)-4-(4-methylthiazol-5-yl)benzyl)-4-hydroxy-1-((S)-3-methyl-2-(1-oxoisoindolin-2-yl)butanoyl)pyrrolidine-2-carboxamide]
> 30 | > 75 | Cc1ncsc1-c1ccc(CNC(=O)[C@@H]2C[C@@H](O)CN2C(=O)[C@H](C(C)C)N2Cc3ccccc3C2=O)c(OCCOCCOCCOCCOCCn2cc(-c3cc(-c4ccccc4O)nnc3N)cn2)c1 [compound 13, (2S,4R)-N-(2-((14-(4-(3-amino-6-(2-hydroxyphenyl)pyridazin-4-yl)-1H-pyrazol-1-yl)-3,6,9,12-tetraoxatetradecyl)oxy)-4-(4-methylthiazol-5-yl)benzyl)-4-hydroxy-1-((S)-3-methyl-2-(1-oxoisoindolin-2-yl)butanoyl)pyrrolidine-2-carboxamide]
 | < 50 | Cc1ncsc1-c1ccc(CNC(=O)[C@@H]2C[C@@H](O)CN2C(=O)[C@H](c2cc(OCCOCCOCCn3cc(-c4cc(-c5ccccc5O)nnc4N)cn3)no2)C(C)C)cc1 [compound 14, (2S,4R)-1-[(2S)-2-(3-[2-[2-(2-[4-[3-amino-6-(2-hydroxyphenyl)pyridazin-4-yl]-1H-pyrazol-1-yl]ethoxy)ethoxy]ethoxy]-1,2-oxazol-5-yl)-3-methylbutanoyl]-4-hydroxy-N-[[4-(4-methyl-1,3-thiazol-5-yl)phenyl]methyl]pyrrolidine-2-carboxamide]
2.5 to 10 | > 75 | Cc1ncsc1-c1ccc(CNC(=O)[C@@H]2C[C@@H](O)CN2C(=O)[C@@H](c2cc(OCCOCCOCCOCCn3cc(-c4cc(-c5ccccc5O)nnc4N)cn3)no2)C(C)C)cc1 [compound 17, (2S,4R)-1-((R)-2-(3-(2-(2-(2-(2-(4-(3-amino-6-(2-hydroxyphenyl)pyridazin-4-yl)-1H-pyrazol-1-yl)ethoxy)ethoxy)ethoxy)ethoxy)isoxazol-5-yl)-3-methylbutanoyl)-4-hydroxy-N-(4-(4-methylthiazol-5-yl)benzyl)pyrrolidine-2-carboxamide]
10 to 30 | > 75 | Cc1ncsc1-c1ccc(CNC(=O)[C@@H]2C[C@@H](O)CN2C(=O)[C@@H](c2cc(OCCOCCOCCOCCOCCn3cc(-c4cc(-c5ccccc5O)nnc4N)cn3)no2)C(C)C)cc1 [compound 19, (2S,4R)-1-[(2R)-2-[3-[(14-[4-[3-amino-6-(2-hydroxyphenyl)pyridazin-4-yl]-1H-pyrazol-1-yl]-3,6,9,12-tetraoxatetradecan-1-yl)oxy]-1,2-oxazol-5-yl]-3-methylbutanoyl]-4-hydroxy-N-[[4-(4-methyl-1,3-thiazol-5-yl)phenyl]methyl]pyrrolidine-2-carboxamide]
> 30 | 50 to 75 | Cc1ncsc1-c1ccc(CNC(=O)[C@@H]2C[C@@H](O)CN2C(=O)[C@H](C(C)C)N2Cc3ccccc3C2=O)c(OCCOCCOCCOCCOCCOCCn2cc(-c3cc(-c4ccccc4O)nnc3N)cn2)c1 [compound 20, (2S,4R)-N-(2-((17-(4-(3-amino-6-(2-hydroxyphenyl)pyridazin-4-yl)-1H-pyrazol-1-yl)-3,6,9,12,15-pentaoxaheptadecyl)oxy)-4-(4-methylthiazol-5-yl)benzyl)-4-hydroxy-1-((S)-3-methyl-2-(1-oxoisoindolin-2-yl)butanoyl)pyrrolidine-2-carboxamide]

Source: US12539292B2, “BRM targeting compounds and associated methods of use” (Arvinas Operations, Inc., priority 2018, dated 2026)
